# According to article PMC6030077, “Dual role of HDAC10 in lysosomal exocytosis and DNA repair promotes neuroblastoma chemoresistance” (Scientific Reports, 2018):
# Experiments:
# Assay type in all cases: cell-based, human
# [1] = system: HDAC6; test: Western blot analysis of tubulin K40 acetylation as a marker for HDAC6 inhibition; conditions: 24 h; bufexamac 30 µM, tubastatin A 7.5 µM, tubacin 7.5 µM
# Procedure: Western blot analysis was performed as previously described. The following antibodies were used: anti-HDAC6 (sc-11420, Santa Cruz), anti-HDAC10 (H3413, Sigma), anti-acetylated histone H3 (06-911, Merck Millipore), anti-histone H3 (9715, Cell Signaling Technology, Cambridge UK), anti-LAMP-1 (H4A3, DHSB, Iowa City, IA, USA), anti-LAMP-2 (H4B4; Santa Cruz Biotechnology), anti-acetylated tubulin (6–11B-1; Sigma), anti-tubulin (2148, Cell Signaling Technology), anti P-glycoprotein (13978 S, Cell Signaling Technology) and anti-β-actin (clone AC-15; Sigma).
# [2] = system: IMR-32 cells; test: Flow cytometric quantification of intracellular doxorubicin accumulation, IMR-32; conditions: 50 ng/ml doxorubicin +/− 7.5 µM tubastatin A, 18 h
# Procedure: For flow cytometric quantification of intracellular doxorubicin after HDAC6/10 inhibition, BE(2)-C, SK-N-AS, IMR-32, HAP1 wild type and HDAC10 knockout cells were seeded in 6-well dishes at a density of 1.5 ∗ 10^5 cells/well (BE(2)-C and SK-N-AS, HAP1) and 3 ∗ 10^5 cells/well (IMR-32). Cells were treated with 25 ng/ml, 50 ng/ml, 100 ng/ml or 1 µg/ml doxorubicin, respectively, for 3–48 h (see respective figure legend). Where indicated, cells were co-treated with HDAC6/10 or lysosomal inhibitors. In case of co-treatment with vacuolin-1, vacuolin-1 was directly added to cells under doxorubicin treatment 1 h or 24 h prior to analysis. Flow cytometric quantification of intracellular doxorubicin after HDAC6, HDAC10 or P-glycoprotein knockdown in BE(2)-C cells was performed 5 days (P-glycoprotein) or 6 days (HDAC6/10) after transfection with siRNA. To that end, cells were seeded 3–4 days after transfection into 6-well dishes at 1.5 ∗ 10^5 cells per well and treated with 100 ng/ml doxorubicin +/− HDAC6/10 and lysosomal inhibitors for the last 24 h. After doxorubicin treatment, BE(2)-C, SK-N-AS, IMR-32 and HAP1 cells were washed with ice-cold RPMI w/o phenol-red and detached using Trypsin/EDTA for 3 minutes at 37 °C. Cells were centrifuged, resuspended in RPMI w/o phenol red and doxorubicin fluorescence was quantified on a BD FACSCanto II platform using the PE filter setting.
# [3] = system: P-glycoprotein; test: Flow cytometric quantification of cell surface P-gp expression; conditions: BE(2)-C; 6 h tubastatin A 7.5 µM; vacuolin-1 10 µM 1 h
# Procedure: Cells were dissociated from dishes using non-enzymatic cell dissociation reagent for five minutes. Cells were counted using a ViCell XR automatic cell counter (Beckmann Coulter) and 2.5 ∗ 10^5 cells were transferred into a pre-cooled 96-well round bottom plate (TPP92097). Cells were stained for 1.5–2 hours on ice with primary anti P-gp (Biozol ABA-AB00143-1.1), LAMP-1 (H4A3, DHSB) antibody or isotype control (DLN-05794, Dianova, […]) and for 1 hour with APC-labeled secondary antibody (Dianova 115-136-068). Cells were washed three times in FACS buffer (5% FBS in PBS) after each antibody incubation step. For evaluation of DNA double-strand breaks, cells were detached from dishes using trypsin, counted using a ViCell XR automatic cell counter (Beckmann Coulter) and transferred into a pre-cooled 96-well round bottom plate (4 ∗ 10^6 cells/well). Cells were fixed and permeabilized using the eBioscience^TM Foxp3/Transcription Factor Staining Buffer Set (Thermo Fisher Scientific). Cells were stained for 1.5 h with Phospho-Histone H2A.X (S139) primary antibody (CST #9718) and for 1 h in Alexa-488-labeled secondary antibody (ThermoFisher A-11008). Cells were washed three times in 1× permeabilization buffer after each antibody incubation step and fluorescence was quantified on a BD FACSCanto II platform.
# [4] = system: BE(2)-C cells; test: Cell viability, automated trypan blue exclusion, BE(2)-C
# Procedure: Adherent cell lines were trypsinized and cells were pooled with corresponding supernatant, centrifuged and resuspended in 1.5 ml cell culture media. Cell viability was measured by automated trypan blue staining with the Vi-Cell XR Cell Viability Analyzer from Beckman Coulter (Krefeld, Germany).
# [5] = system: BE(2)-C cells; test: Colony formation assay; conditions: treated for 24 h, 11 more days growth
# Procedure: RNA isolation and real-time RT-PCR
# RNA was isolated from neuroblastoma cell lines using the RNeasy MiniKit (Qiagen) according to
# manufacturer's instructions. Real-time RT-PCR was performed as described in1. Data were normalized
# to neuroblastoma housekeeping genes SDHA and […] and depicted as fold change relative to
# negative control. The following primer pairs were used: HPRT (hypoxanthine
# phosphoribosyltransferase 1, forward: 5′-[…]-3′ reverse: 5′-
# -3′, ABCB1 (P-GP), forward: 5'-[…]-
# 3', reverse: 5'-[…]-3' , SDHA (succinate dehydrogenase complex,
# subunit A, forward: 5′-[…]-3′, reverse: 5′-
# BE(2)-C cells were seeded on 6-well plates at a density of 800 cells per well and treated as indicated
# for 24 hours. After 24 hours, drugs were washed out and cells were allowed to grow for 11 more days
# before staining of viable cell colonies with crystal violet (1 % crystal violet (w/v) in 70% ethanol). For
# quantification, the plates were scanned, and colonies were counted in […] binary pictures with the
# ITCN plugin for ImageJ software (U. S. National Institutes of Health, Bethesda, MD,
# USA; http://imagej.nih.gov/ij/).
smiles,measurement,setting,value
CN1CCc2c(c3ccccc3n2Cc2ccc(C(=O)NO)cc2)C1 [tubastatin A],HDAC6 inhibition (tubulin K40 acetylation),[1],substantially inhibited HDAC6
same,"doxorubicin accumulation, IMR-32",[2],increased accumulation of doxorubicin
same,cell surface P-gp levels,[3],slightly increased surface P-gp levels
same,"viability of BE(2)-C cells, single treatment","[4]; 100 ng/ml doxorubicin, 7.5 µM tubastatin A or vacuolin-1 alone",did not substantially reduce cell viability
same,"viability of BE(2)-C cells, combination with 100 ng/ml doxorubicin, 24 h or 48 h",[4]; 7.5 µM tubastatin A,strongly reduced viability
same,"growth of BE(2)-C cells in colony assays, combination with doxorubicin",[5],effectively reduce growth
